Source: patent US11931343B2 (ARCUS BIOSCIENCES, INC., priority 2018, dated 2024)

Target: T1, human CD73 (Homo sapiens, UniProt P21589)
T1 sequence (P21589 27-549): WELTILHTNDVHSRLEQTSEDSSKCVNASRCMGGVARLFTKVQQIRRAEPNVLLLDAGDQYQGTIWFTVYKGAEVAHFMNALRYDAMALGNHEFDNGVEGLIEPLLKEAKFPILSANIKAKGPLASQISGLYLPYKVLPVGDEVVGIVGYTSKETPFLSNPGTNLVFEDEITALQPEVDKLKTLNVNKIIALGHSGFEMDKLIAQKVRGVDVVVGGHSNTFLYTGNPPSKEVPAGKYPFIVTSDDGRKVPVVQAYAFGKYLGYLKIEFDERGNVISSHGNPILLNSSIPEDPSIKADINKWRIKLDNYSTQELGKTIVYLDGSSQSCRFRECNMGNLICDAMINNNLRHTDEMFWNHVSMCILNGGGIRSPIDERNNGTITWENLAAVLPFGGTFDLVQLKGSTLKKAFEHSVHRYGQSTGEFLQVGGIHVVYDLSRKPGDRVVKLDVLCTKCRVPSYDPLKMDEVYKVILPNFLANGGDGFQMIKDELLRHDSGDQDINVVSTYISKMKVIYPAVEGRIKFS
Test: Inhibition of Ecto-5′-nucleotidase (CD73) activity in CHO-CD73 cells, phosphate release from AMP
Assay type: cell-based
Details: CHO-K1 cells stably transfected with human CD73; 25 μM AMP; 50 minutes, 37° C.; read-out: Potency: CD73 IC50

Row | Structure (SMILES) | IC50
1 | Oc1cccc(-n2nnc3c(Cl)cc(-c4ccnn4Cc4ccccc4)cc32)c1 [Example 9, 3-[6-(1-Benzyl-1H-pyrazol-5-yl)-4-chloro-1H-1,2,3-benzotriazol-1-yl]phenol] | < 0.1 µM
2 | Clc1ccc(Cn2nccc2-c2cc(Cl)c3nnn(-c4ccc5cn[nH]c5c4)c3c2)cc1 [Example 44] | < 0.1 µM
3 | Clc1cc(-c2ccnn2Cc2ccccn2)cc2c1nnn2-c1ccc2cn[nH]c2c1 [Example 45] | 0.1 to 1 µM
4 | FC(F)(F)Oc1ccc(Cn2nccc2-c2cc(Cl)c3nnn(-c4ccc5cn[nH]c5c4)c3c2)cc1 [Example 46] | < 0.1 µM
5 | c1cc(-c2ccc3nnn(-c4ccc5cn[nH]c5c4)c3c2)n(CC2CC2)n1 [Example 47] | > 1 µM
6 | N#Cc1cccc(Cn2nccc2-c2ccc3nnn(-c4ccc5cn[nH]c5c4)c3c2)c1 [Example 48] | > 1 µM
7 | CC(C)c1ccc(Cn2nccc2-c2cc(Cl)c3nnn(-c4ccc5cn[nH]c5c4)c3c2)cc1 [Example 51] | 0.1 to 1 µM
8 | Clc1ccccc1Cn1nccc1-c1cc(Cl)c2nnn(-c3ccc4cn[nH]c4c3)c2c1 [Example 52] | < 0.1 µM
9 | FC(F)(F)Oc1ccccc1Cn1nccc1-c1cc(Cl)c2nnn(-c3ccc4cn[nH]c4c3)c2c1 [Example 53] | 0.1 to 1 µM
10 | Cc1ccc(Cn2nccc2-c2cc(Cl)c3nnn(-c4ccc5cn[nH]c5c4)c3c2)cc1 [Example 54] | < 0.1 µM
11 | COc1ccc(Cn2nccc2-c2ccc3nnn(-c4ccc5cn[nH]c5c4)c3c2)cc1 [Example 55] | 0.1 to 1 µM
12 | Cc1cnn(Cc2ccc(Cl)cc2)c1-c1cc(Cl)c2nnn(-c3ccc4cn[nH]c4c3)c2c1 [Example 56] | 0.1 to 1 µM
13 | Fc1cc(Cn2nccc2-c2ccc3nnn(-c4ccc5cn[nH]c5c4)c3c2)ccc1Cl [Example 58] | < 0.1 µM
14 | Clc1ccc(Cn2nccc2-c2cc(Cl)c3nnn(-c4ccc5cn[nH]c5c4)c3c2)c(Cl)c1 [Example 59] | < 0.1 µM
15 | Clc1cccnc1Cn1nccc1-c1cc(Cl)c2nnn(-c3ccc4cn[nH]c4c3)c2c1 [Example 61] | > 1 µM
16 | FC(F)c1ccc(Cn2nccc2-c2cc(Cl)c3nnn(-c4ccc5cn[nH]c5c4)c3c2)cc1 [Example 63] | < 0.1 µM

Row | Structure (SMILES) | IC50
17 | Fc1cc(-c2ccnn2Cc2ccc(Cl)cc2)cc2c1nnn2-c1ccc2cn[nH]c2c1 [Example 64] | < 0.1 µM
18 | Fc1cc(-c2ccnn2Cc2ccccc2Cl)cc2c1nnn2-c1ccc2cn[nH]c2c1 [Example 65] | 0.1 to 1 µM
19 | CCc1ccc(Cn2nccc2-c2cc(Cl)c3nnn(-c4ccc5cn[nH]c5c4)c3c2)cc1 [Example 68] | < 0.1 µM
20 | FC(F)(F)c1ccc(Cn2nccc2-c2cc(Cl)c3nnn(-c4ccc5cn[nH]c5c4)c3c2)cc1 [Example 69] | 0.1 to 1 µM
21 | CC(c1ccccc1)n1nccc1-c1cc(Cl)c2nnn(-c3ccc4cn[nH]c4c3)c2c1 (stereo not shown) [Example 70] | 0.1 to 1 µM
22 | CC(c1ccccc1)n1nccc1-c1cc(F)c2nnn(-c3ccc4cn[nH]c4c3)c2c1 (stereo not shown) [Example 71] | > 1 µM
23 | CC(c1ccccc1)n1nccc1-c1ccc2nnn(-c3ccc4cn[nH]c4c3)c2c1 (stereo not shown) [Example 72] | > 1 µM
24 | Fc1ccc(Cn2nccc2-c2cc(Cl)c3nnn(-c4ccc5cn[nH]c5c4)c3c2)nc1 [Example 73] | < 0.1 µM
25 | Cc1cnc(Cn2nccc2-c2cc(Cl)c3nnn(-c4ccc5cn[nH]c5c4)c3c2)c(F)c1 [Example 74] | 0.1 to 1 µM
26 | Fc1cc(-c2ccnn2Cc2ccc(Cl)cc2Cl)cc2c1nnn2-c1ccc2cn[nH]c2c1 [Example 75] | < 0.1 µM
27 | Fc1cc(Cl)ccc1Cn1nccc1-c1cc(F)c2nnn(-c3ccc4cn[nH]c4c3)c2c1 [Example 76] | < 0.1 µM
28 | Clc1cnc(Cn2nccc2-c2ccc3nnn(-c4ccc5cn[nH]c5c4)c3c2)c(Cl)c1 [Example 79] | 0.1 to 1 µM
29 | Clc1cnc(Cn2nccc2-c2cc(Cl)c3nnn(-c4ccc5cn[nH]c5c4)c3c2)c(Cl)c1 [Example 80] | 0.1 to 1 µM
30 | Fc1cnc(Cn2nccc2-c2cc(Cl)c3nnn(-c4ccc5cn[nH]c5c4)c3c2)c(Cl)c1 [Example 81] | 0.1 to 1 µM
31 | Fc1cc(Cn2nccc2-c2cc(Cl)c3nnn(-c4ccc5cn[nH]c5c4)c3c2)ccc1Cl [Example 82] | < 0.1 µM
